From PubChem BioAssay (NCI)
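Cultured in 96-well plates, cells were exposed to test compound for 48 hours across five concentrations. TGI: concentration producing complete growth inhibition.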 Where a SMILES comes first, the peptide text is derived from it. The star is where a group is joined. OSu = O=C1CCC(=O)N1O*

Assays:
Test in all cases: DTP human tumour cell line panel, 48 h
SF-268 CNS = test system: SF-268 CNS
A549 NSCLC = test system: A549 NSCLC
OVCAR-8 ovarian = test system: OVCAR-8 ovarian
SR leukemia = test system: SR leukemia
SNB-19 CNS = test system: SNB-19 CNS
IGROV1 ovarian = test system: IGROV1 ovarian
OVCAR-5 ovarian = test system: OVCAR-5 ovarian
MDA-MB-435 = test system: MDA-MB-435
RXF 393 renal = test system: RXF 393 renal
OVCAR-3 ovarian = test system: OVCAR-3 ovarian
CCRF-CEM leukemia = test system: CCRF-CEM leukemia
PC-3 prostate = test system: PC-3 prostate
T-47D breast = test system: T-47D breast
OVCAR-4 ovarian = test system: OVCAR-4 ovarian
NCI-H460 lung = test system: NCI-H460 lung
SW-620 colon = test system: SW-620 colon
HOP-92 NSCLC = test system: HOP-92 NSCLC
K-562 leukemia = test system: K-562 leukemia
HCT-116 colon = test system: HCT-116 colon
SK-MEL-28 melanoma = test system: SK-MEL-28 melanoma
ACHN renal = test system: ACHN renal
MDA-N = test system: MDA-N
A498 renal = test system: A498 renal
NCI/ADR-RES ovarian = test system: NCI/ADR-RES ovarian
M14 melanoma = test system: M14 melanoma
SK-MEL-2 melanoma = test system: SK-MEL-2 melanoma
HS 578T breast = test system: HS 578T breast
MDA-MB-231 breast = test system: MDA-MB-231 breast
SK-MEL-5 melanoma = test system: SK-MEL-5 melanoma
KM12 colon = test system: KM12 colon
HL-60(TB) leukemia = test system: HL-60(TB) leukemia
HOP-62 NSCLC = test system: HOP-62 NSCLC
BT-549 breast = test system: BT-549 breast
NCI-H226 lung = test system: NCI-H226 lung
HT29 colon = test system: HT29 colon
MOLT-4 leukemia = test system: MOLT-4 leukemia
786-0 renal = test system: 786-0 renal
UACC-257 melanoma = test system: UACC-257 melanoma
EKVX NSCLC = test system: EKVX NSCLC
NCI-H23 lung = test system: NCI-H23 lung
SF-295 CNS = test system: SF-295 CNS
UACC-62 melanoma = test system: UACC-62 melanoma
DU-145 prostate = test system: DU-145 prostate
SN12C renal = test system: SN12C renal
UO-31 renal = test system: UO-31 renal
HCT-15 colon = test system: HCT-15 colon
NCI-H522 lung = test system: NCI-H522 lung
MALME-3M melanoma = test system: MALME-3M melanoma
U251 CNS = test system: U251 CNS
RPMI-8226 leukemia = test system: RPMI-8226 leukemia
CAKI-1 renal = test system: CAKI-1 renal
TK-10 renal = test system: TK-10 renal
LOX IMVI melanoma = test system: LOX IMVI melanoma
SNB-75 CNS = test system: SNB-75 CNS
SK-OV-3 ovarian = test system: SK-OV-3 ovarian
COLO 205 colon = test system: COLO 205 colon
SF-539 CNS = test system: SF-539 CNS
MCF7 breast = test system: MCF7 breast
HCC-2998 colon = test system: HCC-2998 colon

Measured: TGI

Cc1ccc(-[n+]2cc([O-])on2)cc1
not listed: SNB-75 CNS | SK-OV-3 ovarian | COLO 205 colon | SF-539 CNS | MCF7 breast | HCC-2998 colon
> 100 µM: all other assays above

Cc1ccc(S(=O)(=O)N2CC2CCCCC=O)cc1 (centres undefined)
55.1 µM: CCRF-CEM leukemia
56 µM: LOX IMVI melanoma
37.2 µM: SR leukemia
not listed: NCI-H460 lung | HL-60(TB) leukemia | SF-539 CNS | MCF7 breast | HCC-2998 colon
> 100 µM: all other assays above

COc1cc(S(=O)(=O)Nc2ccc(-c3csc(N4C(=O)CSC4c4cccc(Oc5ccccc5)c4)n3)cc2)ccc1Cl (centres undefined)
33.9 µM: T-47D breast
75.8 µM: MDA-N
52.8 µM: RXF 393 renal
51.7 µM: MCF7 breast
48.9 µM: HL-60(TB) leukemia
87.7 µM: SK-MEL-28 melanoma
not listed: A549 NSCLC | NCI-H460 lung | SK-MEL-2 melanoma | MDA-MB-231 breast | UACC-257 melanoma | U251 CNS | TK-10 renal | HCC-2998 colon
> 100 µM: all other assays above

NCCCCC(NC(=O)C(N)Cc1ccc(O)cc1)C(=O)NC(CCCCN)C(=O)NC(CCCCN)C(=O)ON1C(=O)CCC1=O (centres undefined) (H-YKKK-OSu; configuration not given here)
not listed: SF-268 CNS | MDA-MB-435 | OVCAR-3 ovarian | CCRF-CEM leukemia | OVCAR-4 ovarian | NCI/ADR-RES ovarian | SF-295 CNS | DU-145 prostate | NCI-H522 lung | CAKI-1 renal | LOX IMVI melanoma | SK-OV-3 ovarian | SF-539 CNS
> 100 µM: all other assays above
